Where “and” joins values, the source holds several entries; their conditions need not be identical. Equal entries are not always repeated.
How the values were obtained:
Type in all cases: cell-based
C. albicans = C. albicans colony forming units (candidacidal activity); conditions: for C. albicans colony forming units (CFU): FIG. 1, incubation 2 hours at 37° C.; for relative potency in reducing C. albicans viability: FIG. 2, 10^−4M melanocortin peptides
Protocol: C. albicans (clinical isolate) was obtained from the collection of the Department of Microbiology, Ospedale Maggiore di Milano and maintained on Sabouraud's agar slants and periodically transferred to Sabouraud's agar plates and incubated for 48 hours at 28° C. To prepare a stationary growth phase yeast, a colony was taken from the agar plate and transferred into 30 ml Sabouraud-dextrose broth and incubated for 72 hours at 32° C. Cells were centrifuged and suspended in Hank's balanced salt solution (“HBSS”) to the desired concentration. Viability, determined by the exclusion of 0.01% methylene blue, remained >98%.
C. albicans (1×10^6/ml in HBSS) was incubated in the presence or absence or α-MSH(1-13) (SEQ ID NO: 3) or (11-13) (SEQ ID NO: 1) at concentrations in the range of 10^−15 M to 10^−6 M for 2 hours at 37° C. Cells were then washed in cold distilled water and diluted with HBSS to a concentration of 100 organisms/ml. One-ml aliquots were dispensed on blood agar plates and incubated for 48 hours at 37° C. Organism viability was estimated from the number of colonies formed.
In subsequent experiments using familiar procedures we compared activity of α-MSH(4-10) (SEQ ID NO: 10), (6-13) (SEQ ID NO: 2), (11-13) (SEQ ID NO: 1), ACTH(1-39) (SEQ ID NO: 9), (18-39) (SEQ ID NO: 11) and fluconazole, the latter an established antifungal agent. Melanocortin peptides and fluconazole were tested in concentrations of 10^−6 M to 10^−4 M. There were at least six replicates for each concentration of peptide. […]

[1] = test system: C. albicans killing by human neutrophils; assay: C. albicans killing by human neutrophils; conditions: 10^−12M to 10^−4M; 2 hours at 37° C.; p<0.01
Protocol: Venous blood (20 ml) from health volunteers was anticoagulated with heparin. Neutrophils were isolated using dextran sedimentation and Ficoll-Hypaque (Sigma Chemical Co., St. Louis, […]., USA) centrifugation. Erythrocytes were lysed via hypotonic shock. Neutrophils represented at least 97% of the cell suspension. Cell viability, estimated by trypan blue exclusion, was >98%. Neutrophils were suspended to a final concentration in HBSS.
C. albicans (1×10^6) were opsonized with human AB serum in a shaking water bath for 30 minutes at 37° C. […] After incubation, the culture tubes were placed on ice to stop growth and extracellular organisms were washed twice with centrifugation at 1000×g at 4° C. A 2.5% sodium desoxycholoate solution was added to obtain a suspension of 10^6 cells/ml. Two 1/100 serial dilutions in HBSS were made to obtain a final suspension of 100 cells/ml. Aliquots of 1 ml were dispensed on blood agar plates and incubated for 48 hours at 37° C. Colony forming units (CFUs) were counted at the end of the incubation period. Experiments were run in triplicate and repeated using blood from 5 different donors.

[2] = test system: N9 clone of murine microglial cells; assay: TNF-α, IL-6 and NO2− production by LPS+IFN-γ activated microglia; conditions: for concentration most effective at inhibiting cytokine formation: LPS+IFN-γ stimulated microglia, 1-100 μM tested
Protocol: See Delgado, R., Carlin, A., Alraghi, L., Demitri, M., Meda, L., Galimberti, D., Pierluigi, B., Lipton, J. M., Catania, A., Melanocortin Peptides Inhibit Production of Proinflammatory Cytokines and Nitric Oxide by Activated Microglia, 63 J. of Leukocyte Biol. 740 (1998). […] The N9 clone of murine microglial cells was obtained by immortalization of embryonic brain cultures with the 3RV retrovirus carrying an activated v-myconcogene. N9 cells were cultured in T-75-cm^2 culture flasks (Coming, Cambridge, Mass.) and maintained at 37° C. in a humidified incubator under 5% CO2 atmosphere in RPMI 1640 supplemented with 2 mM L-glutamine, 50 U/mL penicillin G, 50 μg/mL streptomycin sulfate (GIBCO-BBL, Paisley, UK), and 10% heat-inactivated fetal bovine serum (FBS, Hyclone Lab, Inc., Logan, Utah) until experiments were performed. Cells were used between the first and the tenth passage.
Sub-confluent microglial cells were washed twice with phosphate-buffered saline (PBS) and incubated with trypsin 0.025% and ethylenediaminetetraacetate (EDTA) 0.02% without calcium and magnesium for 3 min. at 37° C. to detach the cells from the culture flask. Cells were then resuspended in medium and incubated in 24-well tissue-culture plates at a concentration of 2×10^5 cells/mL for 16 h in a humidified incubator (37° C., 5% CO2). Growth medium was removed and cell monolayers were stimulated with 10 ng/mL lipopolysaccharide (LPS, from Escherichia coli 055:B5, Sigma Chemical Co., St. Louis, Mo.) plus 1 U/ml, murine IFN-γ (Sigma). […] Although production of TNF-α and NO was reduced to even much lower concentrations of the peptides, concentrations in the micromolar range had the most profound and consistent inhibitory effects. […] Cell-free supernatants were harvested after 24 h incubation and assayed for TNF-α, IL-6 and NO2. Viability of cells was assessed by trypan blue exclusion for each experimental condition: it was consistently >98%. Dexamethasone (Sigma) and N-monomethyl-L-arginine (L-NMMA: 100 μM, Cayman Chemical, Ann Arbor, Mich.) were used as positive controls for TNF-α and NO inhibition, respectively. Tests were repeated in at least three independent experiments and assays were performed in triplicate.
TNF-α bioactivity was measured in supernatants of cell cultures by standard cytotoxicity assay using L929 cells and recombinant human TNF-α (Sigma) as standard. The detection limit of the bioassay was 20 pg/mL. IL-6 was measured using a commercial murine enzyme-linked immunosorbent assay (ELISA: RPN 2714, Amersham, Little Chalfont, UK).
NO is rapidly oxidized to nitrite in culture medium, and nitrite (NO2^−) concentration is an indicator of NO production. Cell-free culture supernatants were mixed with equal amounts of Griess reagent (1% sulfanilamide, 0.1% naphtylethylenediamide in 2.5% phosphoric acid) in wells of 96-well ELISA plates. Samples were incubated at room temperature for 10 min and absorbance was measured at 540 nm with the use of a microplate reader. Nitrite […] concentrations were calculated using a sodium nitrite standard curve.
Effects of melanocortin peptides on cytokine and NO production were evaluated by repeated measures analysis of variance followed by Dunnet's test for specific comparisons. Probability values less than 0.05 were considered significant.

[3] = test system: N9 clone of murine microglial cells; assay: Northern blot of TNF-α and iNOS mRNA in activated microglia; conditions: peptide prior to LPS and IFN-γ
Protocol: Total cellular RNA was extracted from 10^6 adherent microglial cells plated in six-well tissue culture plates (Corning). Electrophoresis of RNA samples (10 μg/lane) was performed in 1% agarose/2.2 M formaldehyde gels and the gels subsequently blotted onto nylon filters by capillary action and baked for 2 h before prehybridization. The cDNA fragments encoding murine TNF-α and mouse macrophage iNOS were ^32P-labeled using the Ready-To-Go DNA Labeling Kit (Pharmacia, Uppsala, Sweden) before hybridization of nylon filters and autoradiography. Blots were subsequently rehybridized with human glyceraldehyde-3-phosphate dehydrogenase (G-3-PDH) cDNA probe as an internal control (Clontech Laboratories, Inc., Palo Alto, Calif.).

[4] = microglia stimulated with LPS+IFN-γ for 24 hr, micromolar concentrations

Substance	C. albicans colony forming units (CFU) (C. albicans)	relative potency in reducing C. albicans viability (C. albicans)	killing of C. albicans by human neutrophils [1]	concentration most effective at inhibiting cytokine formation [2] [µM]	transcription levels (mRNA) for TNF-α and iNOS [3]	reduction of production of IL-6 [2, 4]	reduction of production of NO2^− [2, 4]	reduction of production of TNF-α [2, 4]
Ac-Lys-Pro-Val-NH2 [α-MSH(11-13)]	greatly reduced	most effective	enhanced the killing	1	decrease in transcription levels			
SYSMEHFRWGKPV [α-MSH(1-13)]	greatly reduced	most effective	enhanced the killing	10	decrease in transcription levels	31% and 50%	42% and 40%	43% and 45%

From patent publication US7115574B2, “System and method for support legacy operating system booting in a legacy-free system” (priority 2001, dated 2006)
